Laboratory results taken from patent publication US12528784B2, “Alkynyl-(heteroaryl)-carboxamide HCN1 inhibitors” (Hoffmann-La Roche Inc., priority 2019, dated 2026).

Legend:
HCN3 = target: T1, HCN3 (Homo sapiens, UniProt Q9P1Z3); assay: HCN3 automated patch clamp current inhibition assay (Ionworks Barracuda); format: cell-based; details: HEK-293 cells stably expressing HCN3; current inhibition during a hyperpolarizing pulse of -100 mV
T1 construct: expressed in transfected cells
T1 sequence (Q9P1Z3 1-774): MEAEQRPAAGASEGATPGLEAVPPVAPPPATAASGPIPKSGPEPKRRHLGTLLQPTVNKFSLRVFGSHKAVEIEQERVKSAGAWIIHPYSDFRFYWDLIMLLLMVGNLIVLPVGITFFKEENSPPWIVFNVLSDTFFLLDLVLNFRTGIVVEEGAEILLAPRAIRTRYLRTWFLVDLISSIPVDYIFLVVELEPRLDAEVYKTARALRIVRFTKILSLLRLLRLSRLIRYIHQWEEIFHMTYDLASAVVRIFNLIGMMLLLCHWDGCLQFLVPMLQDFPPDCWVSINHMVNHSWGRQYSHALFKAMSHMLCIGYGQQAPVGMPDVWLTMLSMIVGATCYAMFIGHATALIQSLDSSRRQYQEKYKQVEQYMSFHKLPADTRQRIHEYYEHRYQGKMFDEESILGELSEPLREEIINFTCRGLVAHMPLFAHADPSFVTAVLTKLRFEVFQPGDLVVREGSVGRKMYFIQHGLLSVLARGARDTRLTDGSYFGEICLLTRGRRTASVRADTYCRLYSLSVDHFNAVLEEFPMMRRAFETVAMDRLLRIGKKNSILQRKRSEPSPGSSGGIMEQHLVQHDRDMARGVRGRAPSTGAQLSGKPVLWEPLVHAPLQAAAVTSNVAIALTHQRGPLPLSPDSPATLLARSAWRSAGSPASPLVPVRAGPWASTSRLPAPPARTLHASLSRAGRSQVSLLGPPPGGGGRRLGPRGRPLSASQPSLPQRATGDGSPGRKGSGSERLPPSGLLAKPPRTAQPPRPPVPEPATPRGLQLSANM
Method: (§1) In vitro, high-throughput cellular electrophysiology was employed to detect voltage- and use-dependence of compounds in single concentration screening and IC50 determination for library and medicinal chemistry profiling compounds in 384 well plates.
(§2) Cell cultures were maintained in DMEM/F12 cell growth media containing FBS and appropriate antibiotics at 37° C., 5% CO2 for a maximum of 20 passages. At a time point of 40-72 hours prior to assay, the expression of HCN protein in the cells is induced by addition of tetracyclin. Cells may be incubated at 27° C. for 2-24 hours of induction. […] Cells were harvested at 80% confluency and resuspended in extracellular buffer and added to wells. A freshly prepared Escin solution was added to intracellular buffer and applied to establish whole cell recording via perforated patch clampling by APC.
(§3) Currents through activated channels were measured directly by APC by employing hyperpolarizing voltage steps. The activation window was increased and stabilized by the addition of cell permeable Br-cAMP. Baselines were established for both use- and voltage-dependence protocols using a −30 mV holding potential and multiple test pulses at −100 mV or by 20 mV steps from −120 to 0 mV, respectively. Test compounds were added after baseline recordings followed by a 10 min incubation, voltage-dependency protocol recording, and use-dependency recording. Data was corrected for baseline and rundown (well based) and normalized for % inhibition (plate based). Five previously reported HCN inhibitors of varying potencies and selectivities and zatebradine were used for run to run and plate to plate quality controls. […] Percent inhibition was analysed at −80, −100, −120 mV of the voltage-dependency protocol and at pulse 0 and 50 of the use-dependency protocols. Selectivity was assessed against HCN2, HCN3, and HCN4 overexpressing cell lines using similar methods. As HCN4 has a slower activation than the other HCN channels, activation was extended to achieve steady state activation.

HCN4 = target: T2, HCN4 (Homo sapiens, UniProt Q9Y3Q4); assay: HCN4 automated patch clamp current inhibition assay (Ionworks Barracuda); format: cell-based; details: HEK-293 cells stably expressing HCN4; current inhibition during a hyperpolarizing pulse of -100 mV
T2 construct: expressed in transfected cells
T2 sequence (Q9Y3Q4 1-1203): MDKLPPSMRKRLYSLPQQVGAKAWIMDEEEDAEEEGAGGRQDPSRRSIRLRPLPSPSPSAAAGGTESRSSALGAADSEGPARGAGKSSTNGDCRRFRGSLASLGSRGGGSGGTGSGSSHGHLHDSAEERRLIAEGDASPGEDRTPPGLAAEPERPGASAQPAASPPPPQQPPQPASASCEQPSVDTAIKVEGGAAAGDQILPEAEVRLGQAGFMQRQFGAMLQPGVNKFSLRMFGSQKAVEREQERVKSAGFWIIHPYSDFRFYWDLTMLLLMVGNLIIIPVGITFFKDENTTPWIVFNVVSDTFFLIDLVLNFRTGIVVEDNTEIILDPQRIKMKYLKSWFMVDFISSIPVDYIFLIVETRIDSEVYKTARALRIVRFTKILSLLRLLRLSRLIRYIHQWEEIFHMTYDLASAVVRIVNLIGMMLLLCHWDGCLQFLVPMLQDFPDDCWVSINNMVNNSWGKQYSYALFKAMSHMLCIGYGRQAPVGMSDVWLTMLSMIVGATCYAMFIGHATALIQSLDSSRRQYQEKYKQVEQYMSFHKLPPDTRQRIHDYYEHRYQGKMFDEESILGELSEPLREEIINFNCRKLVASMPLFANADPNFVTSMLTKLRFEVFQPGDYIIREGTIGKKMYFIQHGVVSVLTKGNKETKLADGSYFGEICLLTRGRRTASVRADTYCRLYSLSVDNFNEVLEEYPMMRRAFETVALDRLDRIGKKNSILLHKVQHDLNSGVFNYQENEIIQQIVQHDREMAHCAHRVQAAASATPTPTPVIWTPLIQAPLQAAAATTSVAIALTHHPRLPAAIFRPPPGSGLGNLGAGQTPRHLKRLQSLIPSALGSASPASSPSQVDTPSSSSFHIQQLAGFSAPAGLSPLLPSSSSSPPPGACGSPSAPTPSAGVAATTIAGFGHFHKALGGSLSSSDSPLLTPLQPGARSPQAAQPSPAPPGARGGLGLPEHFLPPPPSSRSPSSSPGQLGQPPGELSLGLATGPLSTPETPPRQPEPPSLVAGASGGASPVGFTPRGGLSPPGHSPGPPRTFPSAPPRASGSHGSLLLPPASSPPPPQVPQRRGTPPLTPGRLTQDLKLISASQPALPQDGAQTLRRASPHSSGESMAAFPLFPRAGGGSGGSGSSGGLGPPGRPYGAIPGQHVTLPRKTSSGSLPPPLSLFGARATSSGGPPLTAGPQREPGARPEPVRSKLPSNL
Method: as §1, §2, §3

SMILES | IC50 (HCN3) [µM] | IC50 (HCN4) [µM]
Cc1ccc(-n2c(C(N)=O)nc(C#Cc3ccnc(Cl)c3C)c2C)cn1 [Example 1, 4-((2-Chloro-3-methylpyridin-4-yl)ethynyl)-5-methyl-1-(6-methylpyridin-3-yl)-1H-imidazole-2-carboxamide] | > 40 | > 40
Cc1ccc(-n2c(C(N)=O)nc(C#Cc3ccnc(Cl)c3F)c2C)cn1 [Example 2, 4-((2-Chloro-3-fluoropyridin-4-yl)ethynyl)-5-methyl-1-(6-methylpyridin-3-yl)-1H-imidazole-2-carboxamide] | > 40 | > 40
Cc1ccc(-n2c(C(N)=O)nc(C#Cc3csc(Cl)c3)c2C)cn1 [Example 3, 4-[2-(5-Chlorothiophen-3-yl)ethynyl]-5-methyl-1-(6-methylpyridin-3-yl)imidazole-2-carboxamide] | 25.7 | > 40
Cc1ccc(-n2c(C(N)=O)nc(C#Cc3cccc(Cl)c3)c2C)cn1 [Example 4, 4-[2-(3-Chlorophenyl)ethynyl]-5-methyl-1-(6-methyl-3-pyridyl)imidazole-2-carboxamide] | 32.8 | > 40
Cc1ccc(-n2c(C(N)=O)nc(C#Cc3cccc(C#N)c3)c2C)cn1 [Example 5, 4-((3-Cyanophenyl)ethynyl)-5-methyl-1-(6-methylpyridin-3-yl)-1H-imidazole-2-carboxamide] | > 40 | > 40
Cc1ccc(-n2c(C(N)=O)nc(C#Cc3ccnc(Cl)c3)c2C)cn1 [Example 6, 4-(2-Chloro-pyridin-4-ylethynyl)-5-methyl-1-(6-methyl-pyridin-3-yl)-1H-imidazole-2-carboxylic Acid Amide] | > 40 | > 40
COc1cccc(C#Cc2nc(C(N)=O)n(-c3ccc(C)nc3)c2C)c1 [Example 8, 4-((3-Methoxyphenyl)ethynyl)-5-methyl-1-(6-methylpyridin-3-yl)-1H-imidazole-2-carboxamide] | 36.4 | > 40
Cc1cccc(C#Cc2nc(C(N)=O)n(-c3ccc(C)nc3)c2C)c1 [Example 10, 5-Methyl-1-(6-methylpyridin-3-yl)-4-(m-tolylethynyl)-1H-imidazole-2-carboxamide] | > 40 | > 40
Cc1cnc(-n2c(C(N)=O)nc(C#Cc3ccnc(Cl)c3C)c2C)cn1 [Example 23, 4-[2-(2-Chloro-3-methyl-4-pyridyl)ethynyl]-5-methyl-1-(5-methylpyrazin-2-yl)imidazole-2-carboxamide] | 2.4 | > 40

Other lines, results leading:

IC50 (HCN3) [µM] | IC50 (HCN4) [µM] | SMILES
> 40 | > 40 | Cc1c(C#Cc2nc(C(N)=O)n(-c3ccc(Cl)nc3)c2C)ccnc1Cl [Example 26, 4-[2-(2-Chloro-3-methyl-4-pyridyl)ethynyl]-1-(6-chloro-3-pyridyl)-5-methyl-imidazole-2-carboxamide]
38.4 | > 40 | COc1ccc(-n2c(C(N)=O)nc(C#Cc3ccnc(Cl)c3C)c2C)cn1 [Example 27, 4-[2-(2-Chloro-3-methyl-4-pyridyl)ethynyl]-1-(6-methoxy-3-pyridyl)-5-methyl-imidazole-2-carboxamide]
> 40 | > 40 | Cc1ccc(-n2c(C(N)=O)nc(C#Cc3ccnc(Cl)c3C)c2C)nc1 [Example 28, 4-[2-(2-Chloro-3-methyl-4-pyridyl)ethynyl]-5-methyl-1-(5-methyl-2-pyridyl)imidazole-2-carboxamide]
23.5 | > 40 | Cc1ccc(-n2c(C(N)=O)cc(C#Cc3ccnc(Cl)c3)c2C)cn1 [Example 31, 4-[2-(2-Chloro-4-pyridyl)ethynyl]-5-methyl-1-(6-methyl-3-pyridyl)pyrrole-2-carboxamide]
> 40 | > 40 | Cc1ccc(-c2c(C(N)=O)nc(C#Cc3ccnc(Cl)c3)n2C)cn1 [Example 32, 2-[2-(2-Chloro-4-pyridyl)ethynyl]-1-methyl-5-(6-methyl-3-pyridyl)imidazole-4-carboxamide]
> 40 | > 40 | Cc1ccc(-n2c(C(N)=O)nc(C#Cc3ccnc(Cl)c3)c2C)cc1 [Example 38, 4-[2-(2-Chloro-4-pyridyl)ethynyl]-5-methyl-1-(p-tolyl)imidazole-2-carboxamide]
> 40 | > 40 | Cc1c(C#Cc2ccnc(Cl)c2)nc(C(N)=O)n1-c1ccc(Cl)cc1 [Example 39, 1-(4-Chlorophenyl)-4-((2-chloropyridin-4-yl)ethynyl)-5-methyl-1H-imidazole-2-carboxamide]
> 40 | > 40 | NC(=O)c1nc(C#Cc2ccnc(Cl)c2)cn1-c1ccc(F)cc1 [Example 42, 4-(2-Chloro-pyridin-4-ylethynyl)-1-(4-fluoro-phenyl)-1H-imidazole-2-carboxylic Acid Amide]
